Source: patent US20110104055A1, “SUBSTITUTED N-ARYL BENZAMIDES AND RELATED COMPOUNDS FOR TREATMENT OF AMYLOID DISEASES AND SYNUCLEINOPATHIES” (priority 2002, published 2011)

Target: T1, IAPP fibrils (Homo sapiens, UniProt P10997)
T1 construct: purchased Bachem Inc
T1 sequence (P10997 34-70 limits assumed): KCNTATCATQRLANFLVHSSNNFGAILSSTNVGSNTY
Assay: Thioflavin T fluorometry, disruption of IAPP fibrils
Assay type: biochemical
Conditions: 3 days; for % inhibition of IAPP (Thioflavin T fluorometry): 25 μM IAPP, 37° C.
Procedure: The biological activity of the compounds provided herein as disruptors/inhibitors of Alzheimer's disease β-amyloid protein (Aβ) fibrils, type 2 diabetes IAPP fibrils and Parkinson's disease NAC fibrils was assessed by determining the efficacy of the compounds to cause a disassembly/disruption of pre-formed amyloid fibrils of Alzheimer's disease (i.e. consisting of Aβ 1-42 fibrils), IAPP fibrils and Parkinson's disease NAC fibrils. […] In this assay Thioflavin T binds specifically to fibrillar amyloid, and this binding produces a fluorescence enhancement at 485 nm that is directly proportional to the amount of fibrils present. The higher the fluorescence, the greater the amount of fibrils present (Naki et al, Lab. Invest. 65:104-110, 1991; Levine III, Protein Sci. 2:404-410, 1993; Amyloid: Int. J. Exp. Clin. Invest. 2:1-6, 1995). The disruption of Aβ 1-42, even in its monomeric form, was confirmed by a study involving the use of SDS-PAGE and Western blotting methods.
In this assay Thioflavin T binds specifically to fibrillar amyloid, and this binding produces a fluorescence enhancement at 485 nm that is directly proportional to the amount of amyloid fibrils formed. The higher the fluorescence, the greater the amount of amyloid fibrils formed (Naki et al., Lab. Invest. 65:104-110, 1991; Levine III, Protein Sci. 2:404-410, 1993; Amyloid: Int. J. Exp. Clin. Invest. 2:1-6, 1995).
In this study, 25 μM of IAPP (Bachem Inc) was incubated at 37° C. for 3 days, either alone, or in the presence of one of the compounds or EDTA (at IAPP:test compound weight ratios of 1:1, 1:0.1, 1:0.01 or 1:0.001). Following 3 days of co-incubation, 50 μl of each incubation mixture was transferred into a 96-well microtiter plate containing 150 μl of distilled water and 50 μl of a Thioflavin T solution (i.e. […] Thioflavin T in 250 mM phosphate buffer, pH 6.8). The fluorescence was read at 485 nm (444 nm excitation wavelength) using an ELISA plate fluorometer after subtraction with buffer alone or compound alone, as blank).

## O=C(O)CN(CCN(CC(=O)O)CC(=O)O)CC(=O)O [EDTA]
IAPP:test compound wt/wt ratio 1:0.001
  % inhibition of IAPP (Thioflavin T fluorometry): 0.0 +/− 0.56%
IAPP:test compound wt/wt ratio 1:0.01
  % inhibition of IAPP (Thioflavin T fluorometry): 4. +/− 3.152%
IAPP:test compound wt/wt ratio 1:0.1
  % inhibition of IAPP (Thioflavin T fluorometry): 1.6 +/− 5.86%
IAPP:test compound wt/wt ratio 1:1
  % inhibition of IAPP (Thioflavin T fluorometry): 0.0 ± 1.31%
Thioflavin T fluorometry, all concentrations tested
  disruption/disassembly of preformed IAPP fibrils, in words: no significant inhibition/disruption
